Earlier results as cited in patent EP1577823B1, “A method for identifying unknown proteins by a two-dimensional separation step and the use of markers” (CENTRE NATIONAL DE LA RECHERCHE SCIENTIFIQUE (CNRS), priority 2004, dated 2005).

Settings: pKa value of the positively or negatively charged amino acid side chain

Structure (SMILES)	pKR
N=C(N)NCCC[C@H](N)C(=O)O [Arginine]	12,5
N[C@@H](CS)C(=O)O [Cysteine]	8,3
N[C@@H](CCC(=O)O)C(=O)O [Glutamic acid]	4,3
N[C@@H](Cc1c[nH]cn1)C(=O)O [Histidine]	6
NCCCC[C@H](N)C(=O)O [Lysine]	10,8
N[C@@H](CO)C(=O)O [Serine]	13
C[C@@H](O)[C@H](N)C(=O)O [Threonine]	13
N[C@@H](Cc1ccc(O)cc1)C(=O)O [Tyrosine]	10,1
